The results in this text go back to patent publication US20060263346A1, “Combined pharmaceutical preparations for the treatment of cancer, containing glutaminase and antineoplastic anthracyclines or platinum compounds” (priority 2003, published 2006).

Holding throughout (format): cell-based
The test system of one experiment is colon tumor (HT29) cells. In words: Sulforhodamine in vitro cell growth test, colon tumor cells HT29. The conditions noted are these: 2 μg/ml cis-platinum alone, 48 h.
The subject of experiment [1] is breast tumor (MCF7) cells. As to the kind of experiment: Sulforhodamine in vitro cell growth test, breast tumor cells MCF7. The conditions noted are these: 48 h.
Method: (§1) Cell lines from tumors of the breast (MCF7), lung (NCI-H460, A549), colon (SW-60, HT29) and CNS (SF-539) were used for the test. The tumor cells were cultured in RPMI 1640 medium containing 7.5% foetal calf serum at 37° C. and 5% CO2. After the cells had grown for 24 hours, they were incubated with the substances to be tested for 48 hours.
(§2) The antineoplastic agents used for the experiments were obtained from Sigma in cell culture quality.
(§3) A Pseudomonas 7A glutaminase-asparaginase modified with polyethylene glycol (DE 41 40 003 A1, WO 94/13817 A1 and WO 02/31498 A2) was used as the glutaminase.
(§4) After a 48 hour incubation period cell growth was determined by means of the absorption of the bound sulforhodamine dye at 575 nm. The percentage growth was calculated as follows: [formula] in which PW denotes percentage growth, C denotes untreated control cells, T denotes the amount of treated cells and the indices 0 and t denote the amount of cells at time 0 and after 48 hours.
For another experiment, the system named is lung tumor (A549) cells. In words: Sulforhodamine in vitro cell growth test, lung tumor cells A549. The conditions noted are these: 48 h.
For experiment [2], the system named is lung tumor (NCI-H23) cells. As to the kind of experiment: Sulforhodamine in vitro cell growth test, lung tumor cells NCI-H23. The conditions noted are these: 48 h.
Method: as §1, §2, §3, §4

Method for colon tumor (HT29) cells: as §1, §2, §3, §4
Method for lung tumor (A549) cells: as §1, §2, §3, §4

Consider `N.N.[Cl][Pt][Cl]` [Cis-platinum, cis-platinum], for which the tumor cell growth worked out at 65% in the experiment with colon tumor (HT29) cells, 86% in experiment [1] (2 μg/ml cis-platinum alone) and 41% with lung tumor (A549) cells (2 μg/ml cis-platinum alone).
On to `COc1cc([C@@H]2c3cc4c(cc3[C@@H](O[C@@H]3O[C@@H]5CO[C@@H](C)O[C@H]5[C@H](O)[C@H]3O)[C@H]3COC(=O)[C@H]23)OCO4)cc(OC)c1O` [Etoposide, etoposide], for which the “growth compared to the control” value (in experiment [1] (2.3 μg/ml etoposide alone); in experiment [2] (2.3 μg/ml etoposide alone); in the experiment on lung tumor (A549) cells (2.3 μg/ml etoposide alone)) was “about 40%” throughout.
`N[C@@H](Cc1ccc(N(CCCl)CCCl)cc1)C(=O)O` [Melphalan, melphalan] displayed a tumor growth in experiment [2] (68 μg/ml melphalan alone) of 34%.
`CO[C@@]12[C@H](COC(N)=O)C3=C(C(=O)C(C)=C(N)C3=O)N1C[C@@H]1N[C@@H]12` [Mitomycin, mitomycin]: in experiment [1] (0.026 μg/ml mitomycin alone), the “growth compared to the control” value stood at 66%.
